Measured values from ChEMBL document CHEMBL4118093, “Identification of a Hit Series of Antileishmanial Compounds through the Use of Mixture-Based Libraries” (ACS Med Chem Lett, 2017).
pIC50: −log10 of the molar value.

What was measured:
Leishmania donovani = assay: Antileishmanial activity against Leishmania donovani axenic amastigotes infected in mouse J774 cells measured after 72 hrs by Draq5 staining based high content screening assay; type: functional, organism-based; conditions: J774, 72 h
[1] = Selectivity index, ratio of IC50 for mouse J774 cells to IC50 for Leishmania donovani axenic amastigotes infected in mouse J774 cells; type: toxicity, cell-based; conditions: read-out: Ratio IC50
J774 = assay: Cytotoxicity against mouse J774 cells

SMILES	pIC50 (Leishmania donovani)	selectivity ratio [1]	pIC50 (J774)
CC1CCC(CN2C(=N)NC[C@@H]2CCCCN2CCNC2=N)CC1 (stereo partly specified)	5.36	1	5.22
N=C1NCCN1CCc1ccccc1	5.00	1	5.10
N=C1NC[C@H](CCCCN2CCN(CCc3ccc(-c4ccccc4)cc3)C2=N)N1	5.31	10	4.30
CCCC[C@H]1CN(CCCC[C@H]2CNC(=N)N2CCC23CC4CC(CC(C4)C2)C3)C(=N)N1	5.38	3	4.89
CCCCCCCN1CCN(CCCC[C@H]2CNC(=N)N2CCc2cccc(C(F)(F)F)c2)C1=N	5.60	4	5.05
Cc1ccccc1CCN1C(=N)NC[C@@H]1CCCCN1CCNC1=N	5.46	14	4.30
N=C1NCCN1CCCC[C@H]1CNC(=N)N1CCC12CC3CC(CC(C3)C1)C2	5.46	14	4.30
CCCC[C@H]1CNC(=N)N1CCC12CC3CC(CC(C3)C1)C2	5.33	3	4.92
Cc1ccc(CCN2C(=N)NC[C@@H]2CCCCN2CCNC2=N)cc1	5.41	6	4.66
CCCCCCCN1C(=N)N(CCCC[C@H]2CNC(=N)N2)C[C@@H]1CCCC	5.89	17	4.66
CCCC[C@H]1CNC(=N)N1CCc1ccc(-c2ccccc2)cc1	5.62	6	4.82
N=C1NCCN1CCc1ccc(-c2ccccc2)cc1	5.32	3	4.82
CCCC[C@H]1CN(CCCC[C@H]2CNC(=N)N2)C(=N)N1	5.00 to 5.30	5 to 10	4.30
CC1CCCC(CCN2C(=N)NC[C@@H]2CCCCN2CCNC2=N)C1 (stereo partly specified)	5.74	10	4.72
CCCC[C@H]1CN(CCCC[C@@H]2CNC(=N)N2CCC23CC4CC(CC(C4)C2)C3)C(=N)N1CCc1ccc(-c2ccccc2)cc1	5.42	6	4.68
CCCC[C@H]1CN(CCCC[C@H]2CNC(=N)N2CCc2cccc(C(F)(F)F)c2)C(=N)N1	5.46	3	4.96
CC1CCCCC1CN1C(=N)NC[C@@H]1CCCCN1CCNC1=N (stereo partly specified)	5.27	3	4.85

Stronger by pIC50 (Leishmania donovani), values ahead:

pIC50 (Leishmania donovani)	SMILES	selectivity ratio [1]	pIC50 (J774)
5.92	CCCC[C@H]1CN(CCCC[C@H]2CNC(=N)N2)C(=N)N1CCc1ccc(-c2ccccc2)cc1	43	4.30
5.92	N=C1NCCN1CCCC[C@H]1CNC(=N)N1CCc1ccccc1	13	4.80
5.96	CCCC[C@H]1CNC(=N)N1CCc1ccccc1	23	4.60
6.05	N=C1NCCN1CCCC[C@H]1CNC(=N)N1CCc1cccc(C(F)(F)F)c1	9	5.15
6.05	Cc1cccc(CCN2C(=N)NC[C@@H]2CCCCN2CCNC2=N)c1	56	4.30
6.15	N=C1N(CCCC[C@H]2CNC(=N)N2CCC23CC4CC(CC(C4)C2)C3)CCN1CCc1ccc(-c2ccccc2)cc1	33	4.64
6.22	CCCC[C@H]1CNC(=N)N1CC1CCC(C)CC1 (stereo partly specified)	10	5.22
6.22	CC1CCC(CCN2C(=N)NC[C@@H]2CCCCN2CCNC2=N)CC1 (stereo partly specified)	28	4.77
6.22	N=C1NC[C@H](CCCCN2CCN(CCc3ccccc3)C2=N)N1	36	4.70
6.22	CCCC[C@H]1CN(CCCC[C@@H]2CNC(=N)N2CCc2cccc(C(F)(F)F)c2)C(=N)N1CCCCC1CCCCC1	79	4.30
